Assay results: patent US6573078B1, “Compounds which inhibit HIV replication” (priority 1992, dated 2003)

Legend:
[1] = tested on: HIV-1LAI virus; assay: Peptide blockade of HIV-1 induced cell-cell fusion (syncytia formation; Molt4 cells co-cultivated with chronically infected CEM cells); type: cell-based; conditions: for No. Syncytia/well: Table 3, ctrl cells only = 85; for Fusion: quantity of compound required for 90% reduction in number of syncytia: control = 90 syncytia; for Syncytia Number: EXP. 1, 0 peptide = 89
Experimental: The initial screen for antiviral activity of the peptides shown in FIG. 1 was for blockade of syncytium formation induced by overnight co-cultivation of uninfected Molt4 cells with chronically infected (HIV-1IIIB) CEM cells.
Approximately 7×10^4 Molt cells were incubated with 1×10^4 CEM cells chronically infected with the HIV-1LAI virus in 96 well plates (one-half area cluster plates;Costar. Cambridge, Mass.) in a final volume of […] culture media in accordance with known techniques (T. Matthews et al., Proc. Natl. Acad. Sci. U.S.A. 84, 5424 (1987)). Peptide inhibitors were added in a volume of […] and the cell mixtures were incubated for 24 hr at 37° C. At that time point, multinucleated giant cells were estimated by microscopic examination at a 40× magnification which allowed visualization of the entire well in a single field.

[2] = tested on: HIV-1LAI; assay: Peptide inhibition of infection by cell-free virus (neutralization assay; AA5 cells, RT activity readout); type: cell-based
Experimental: Cell cultures were maintained in 96-well microtiter plates for 8 days by addition of fresh medium (but no further addition of peptides) every other day. On the eighth day post-infection, supernatant was tested for reverse transcriptase activity as evidence of successful infection.
The micro RT assay was adapted from Goff et al. (J. Virol. 38, 239 (1981)) and Willey et al. (J. Virol. 62, 139 (1988)). Supernatants from virus/cell cultures are made 1% in Triton-X100. A […] sample of supernatant was added to 50 ml of RT cocktail in a 96 well U bottom microtiter plate and the samples incubated at […] for 90 min. The cocktail contained 75 mM KCl, 2 mM dithiothreitol, 5 mm Mgcl2l 5 mg/ml poly A (Pharmacia cat. No. 27-4110-01), 0.25 units/ml oligo dT (Pharmacia cat. No. 27-7858-01), 0.05% NP40, 50 mM Tris-HC1, pH 7.8, 0.5 mM non-radioactive dTTP, and 10 mCi/ml ^32p-dTTP (Amersham cat. No. PB.10167). After the incubation period, 40 ml of reaction mixture was applied to a Schleicher and Schuell NA45 membrane (or DE81 paper) saturated in 2×SSC buffer (0.3M NaCl and […]) held in a Schleicher and Schuell Minifold over one sheet of GB003 filter paper. Each well of the minifold was washed four times with […] 2×SSC. The membrane was removed from the minifold and washed 2 more times in a pyrex dish with an excess of 2×SSC. Finally the membrane was drained on absorbent paper, placed on Whatman #3 paper, covered with saran wrap, and exposed to film overnight.
The HIV1LAI virus was obtained from R. Gallo (see M. Popovic et al., Science 224, 497 (1984)) and propagated in CEM cells cultured in RPMI 1640 containing 10-% FCS. Supernatant from the infected CEM cells was passed through a […] and the infectious titer estimated in a microinfectivity assay using the AA5 cell line to support virus replication. For this purpose 25 ml of serially diluted virus was added to 75 ml AA5 cells at 2×10^5/ml in a 96 well microtiter plate. Each virus dilution was tested in triplicate. Cells were cultured for eight days by addition of fresh medium every other day. On day 8 post infection supernatant samples were tested for virus replication as evidenced by RT activity released to the supernatant in accordance with the procedure described above. The TCID50 was calculated according to the Reed and Muench formula in accordance with known techniques. See L. Reed et al., Amer. J. Hygiene 27, 493 (1938) . The titer of the HIV-1LAI stock used for these studies, as measured on the AA5 cell line, was approximately 1×10^7TCID50/ml. The two primary isolates were obtained from PBMCs of two infected donors, one from Brazil (HIV-1Br3) and the other Trinidad (HIV-1Q72775) by co-cultivation with PHA-blasted normal donor PBMCs in RPMI 1640 containing IL2. The infectious titers of the primary virus stocks were estimated by titration onto normal human PHA blasted PBMCs in a 96 well microtiter plate, again using RT activity released to the supernatant as evidence for successful infection. The infectious titer of both of these isolates was estimated to be approximately 1×10^3 TCID100/ml.
The peptides were next tested for blockade of infection by cell-free virus. The results shown in FIG. 3 are representative of several experiments in which the DP-107, 125, and (CS3) peptides were compared for potency in the blockade of HIVLAI, infection of AA5 cells. Each level of peptide was incubated in triplicate with about 500 TCID50 of virus and cells. After 7 days of culture, cell-free supernatant was tested for the presence of RT activity as a measure of successful infection.

[3] = peptide concentration 1.25 ug/ml on IIIB
[4] = peptide concentration 2.5 ug/ml on IIIB
[5] = peptide concentration 5 ug/ml on IIIB
[6] = peptide concentration 10 ug/ml on IIIB
[7] = peptide concentration 20 ug/ml on IIIB
[8] = peptide concentration 40 ug/ml on IIIB

Substance | No. Syncytia/well [1, 3] | No. Syncytia/well [1, 4] | No. Syncytia/well [1, 5] | No. Syncytia/well [1, 6] | No. Syncytia/well [1, 7] | No. Syncytia/well [1, 8] | Neutraliz: quantity of compound required for 90% reduction in infectivity [2] [µg/mL] | Fusion: quantity of compound required for 90% reduction in number of syncytia [1] [µg/mL] | Syncytia Number ([1]; peptide concentration 1.5 micrograms/ml) | Syncytia Number ([1]; peptide concentration 3 micrograms/ml) | Syncytia Number ([1]; peptide concentration 6 micrograms/ml) | Syncytia Number ([1]; peptide concentration 12 micrograms/ml) | Syncytia Number ([1]; peptide concentration 25 micrograms/ml) | Syncytia Number ([1]; peptide concentration 50 micrograms/ml) | Inhibitory / anti-viral / biological activity (in words) ([1]; cell fusion assay)
QQLLDVVKRQQEMLRLTVWGTKNLQARVTAIEKYLKDQ [DP-118] | 74 | 78 | 80 | 77 | 0 | 0 | – | – | – | – | – | – | – | – | –
NNLLRAIEAQQHLLQLTVWGAKQLQARILAVERYLKDQ [DP-140] | – | – | – | – | – | – | 14 | 17 | – | – | – | – | – | – | –
DP-31: peptide representing an overlapping immunodominant site of gp41 (SEQ ID NO: 5); sequence only in FIG. 1 (H-ERYLKDQQLLGIWGCSCKLICG-OH; cysteine pairing not given here) | – | – | – | – | – | – | – | – | 75 | 90 | 87 | 78 | 80 | 85 | failed to show inhibitory activity
GIKQLQARILAVERYLKDQQ [DP-122] | – | – | – | – | – | 73 | >30 | >40 | – | – | – | – | – | – | –
NNLLRAIEAQQHLLQLTVWGIKQLQARILAV [DP-127] | 87 | 53 | 20 | 0 | 0 | 0 | 23 | 7 | – | – | – | – | – | – | –
IEAQQHLLQLTVWGIKQLQARILAVERYLKDQ [DP-123] | 80 | 69 | 76 | 86 | 55 | 4 | >30 | 40 | – | – | – | – | – | – | –
CGGNNLLRAIEAQQHLLQLTVWGIKQLQARILAVERYLKDQGGC [DP-130] | 47 | 0 | 0 | 0 | 0 | 0 | <1 | 2 | – | – | – | – | – | – | –
NNLLRAIEAQQHLLQLTVWGSKQLQARILAVERYLKDQ [DP-139] | – | – | – | – | – | – | >30 | >40 | – | – | – | – | – | – | –
CGGNNLLRAIEAQQHLLQLTVWGIKQLQARILAV [DP-136] | – | – | – | – | – | – | >30 | >40 | – | – | – | – | – | – | –
NNLLRAIEAQQHLLQLTVWGIKQLQARILAVERYLKDQGGC [DP-129] | 0 | 0 | 0 | 0 | 0 | 0 | <1 | <1 | – | – | – | – | – | – | –
